Test results from patent publication US6750228B1, “Aromatic sulfone hydroxamic acid metalloprotease inhibitor” (priority 1997, dated 2004).
Where two headings read alike, the source gives them in different places.

Tests used:
Assay in all cases: biochemical
MMP-13 = target: T1, MMP-13 (Homo sapiens, UniProt P45452); details: recombinant human MMP-13, MCA peptide substrate 4 μM, pH 7.5, room temperature; read-out: MMP-13 IC50
T1 construct: made in house; host or cells: baculovirus / insect cells
Summary of the method: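 APMA- or trypsin-activated enzymes were preincubated with inhibitor for 5 min at room temperature, then the fluorogenic substrate MCA-Pro-Leu-Gly-Leu-Dpa-Ala-Arg-NH2 was added to a final 4 μM.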

MMP-2 = target: T2, MMP-2 (Homo sapiens, UniProt P08253); details: recombinant human MMP-2, MCA peptide substrate 4 μM, pH 7.5, room temperature; read-out: MMP-2 IC50
T2 construct: made in house; provided by Dr. Gregory Goldberg, Washington University
T2 sequence (P08253 110-660): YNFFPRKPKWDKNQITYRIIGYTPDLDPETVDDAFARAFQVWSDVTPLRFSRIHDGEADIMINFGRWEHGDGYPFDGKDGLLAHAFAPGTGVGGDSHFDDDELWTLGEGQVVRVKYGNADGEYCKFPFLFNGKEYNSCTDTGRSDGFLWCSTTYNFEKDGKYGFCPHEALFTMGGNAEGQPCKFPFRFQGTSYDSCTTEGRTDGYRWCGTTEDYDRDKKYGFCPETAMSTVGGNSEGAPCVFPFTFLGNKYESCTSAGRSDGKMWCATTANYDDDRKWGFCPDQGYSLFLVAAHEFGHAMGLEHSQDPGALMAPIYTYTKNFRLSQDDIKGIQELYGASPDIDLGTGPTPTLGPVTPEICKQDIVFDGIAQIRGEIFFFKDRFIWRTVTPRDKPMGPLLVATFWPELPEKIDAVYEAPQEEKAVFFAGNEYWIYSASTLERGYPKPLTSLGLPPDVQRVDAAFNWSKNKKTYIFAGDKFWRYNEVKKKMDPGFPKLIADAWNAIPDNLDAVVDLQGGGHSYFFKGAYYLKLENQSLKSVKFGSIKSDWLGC
Summary of the method: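 APMA- or trypsin-activated human MMPs (MMP-1 from transfected HT-1080 cells, MMP-2 from transfected cells) preincubated with inhibitor in 1% DMSO at room temperature, then 4 μM MCA-Pro-Leu-Gly-Leu-Dpa-Ala-Arg-NH2 added in Tris/NaCl/CaCl2 buffer pH 7.5. IC50 from fluorescence reduction versus inhibitor concentration.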

MMP-1 = target: T3, MMP-1 (Homo sapiens, UniProt P03956); details: read-out: MMP-1 IC50
T3 construct: made in house; host or cells: transfected HT-1080 cells (provided by Dr. Harold Welgus, Washington University)
T3 sequence (P03956 100-469): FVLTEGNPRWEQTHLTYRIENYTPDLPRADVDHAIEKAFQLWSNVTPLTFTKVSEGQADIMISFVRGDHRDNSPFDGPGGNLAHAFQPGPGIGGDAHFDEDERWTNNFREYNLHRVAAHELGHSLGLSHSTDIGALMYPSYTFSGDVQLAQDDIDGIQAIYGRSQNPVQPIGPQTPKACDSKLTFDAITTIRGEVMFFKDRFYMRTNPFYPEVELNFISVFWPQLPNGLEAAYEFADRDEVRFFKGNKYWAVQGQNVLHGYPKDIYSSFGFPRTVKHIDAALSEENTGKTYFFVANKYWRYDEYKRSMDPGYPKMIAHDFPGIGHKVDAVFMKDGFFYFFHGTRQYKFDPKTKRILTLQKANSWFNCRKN
Summary of the method: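 Substrate MCA-PLGL-Dpa-AR-NH2 at 4 μM final; pH 7.5 Tris/NaCl/CaCl2 buffer with 0.05% polyethyleneglycol lauryl ether, 1% DMSO, room temperature. MMP-1 was expressed in transfected HT-1080 cells and APMA-activated.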

[1] = recombinant human MMP-1, MCA peptide substrate 4 μM, pH 7.5, room temperature

Row | SMILES | IC50 (MMP-13) | IC50 (MMP-2) | IC50 (MMP-1; [1]) | IC50 (MMP-1)
1 | O=C(NO)C1(S(=O)(=O)c2ccc(N3CCC(OCc4ccc(COCC(F)(F)C(F)(F)C(F)(F)C(F)F)cc4)CC3)cc2)CCOCC1 [Example 611] | 139 nM | 1800 nM | > 10 µM | 
2 | O=C(NO)C1(S(=O)(=O)c2ccc(N3CCC(OCc4ccc(COc5ccccc5)cc4)CC3)cc2)CCOCC1 [Example 613] | 8 nM | 30.7 nM | > 10 µM | 
3 | O=C(NO)C1(S(=O)(=O)c2ccc(N3CCC(Oc4ccc(Cl)cc4)CC3)cc2)CCOCC1 [Example 615] | 3.1 nM | 11 nM | > 10 µM | 
4 | O=C(NO)C1(S(=O)(=O)c2ccc(N3CCC(Oc4ccc(Cl)c(Cl)c4)CC3)cc2)CCOCC1 [Example 617] | 7 nM | 5.7 nM | > 10 µM | 
5 | Cc1ccc(OC2CCN(c3ccc(S(=O)(=O)C4(C(=O)NO)CCOCC4)cc3)CC2)cc1 [Example 619] | 4.3 nM | 5.7 nM | > 10 µM | 
6 | CCOC(=O)CN1CCN(c2ccc(S(=O)(=O)C3(C(=O)NO)CCOCC3)cc2)CC1 [Example 621] | 120 nM | 1500 nM | > 10 µM | 
7 | CCN1CCN(c2ccc(S(=O)(=O)C3(C(=O)NO)CCOCC3)cc2)CC1 [Example 622] | 500 nM | 1600 nM | > 10 µM | 
8 | O=C(NO)C1(S(=O)(=O)c2ccc(N3CCC(SC4CCCCC4)CC3)cc2)CCOCC1 [Example 634] | 4.4 nM | 60.7 nM |  | > 10 µM
9 | Cc1ccc(OC2CCN(c3ccc(S(=O)(=O)C4(C(=O)NO)CCOCC4)cc3)CC2)cc1C [Example 637] | 3.8 nM | 22 nM | > 10 µM | 
10 | CCCCc1ccc(OC2CCN(c3ccc(S(=O)(=O)C4(C(=O)NO)CCOCC4)cc3)CC2)cc1 [Example 642] | 2.2 nM | 1.1 nM | > 10 µM | 
11 | COCCc1ccc(OC2CCN(c3ccc(S(=O)(=O)C4(C(=O)NO)CCOCC4)cc3)CC2)cc1 [Example 643] | 1.8 nM | 1.2 nM | 6 µM | 
12 | O=C(NO)C1(S(=O)(=O)c2ccc(N3CCC(Oc4ccc5c(c4)OCO5)CC3)cc2)CCOCC1 [Example 644] | 1.6 nM | 3.3 nM | 8.8 µM | 
13 | COc1ccc(C(=O)C2CCN(c3ccc(S(=O)(=O)C4(C(=O)NO)CCOCC4)cc3)CC2)cc1 [Example 647] | 6 nM | 160 nM | > 10 µM | 
14 | COc1ccc(COC2CCC(Oc3ccc(S(=O)(=O)C4(C(=O)NO)CCOCC4)cc3)C2)cc1 (stereo not drawn) [Example 648] | 25.8 nM | 110 nM | > 10 µM | 
15 | O=C(NO)C1(S(=O)(=O)c2ccc(N3CCCN(S(=O)(=O)c4ccccc4)CC3)cc2)CCOCC1 [Example 650] | 14.7 nM | 1200 nM | > 10 µM | 
16 | Cc1ccc(C(=O)C2CCN(c3ccc(S(=O)(=O)C4(C(=O)NO)CCOCC4)cc3)CC2)cc1 [Example 652] | 0.4 nM | 82 nM | > 10 µM | 
17 | Cc1cccc(C(=O)C2CCN(c3ccc(S(=O)(=O)C4(C(=O)NO)CCOCC4)cc3)CC2)c1 [Example 653] | 0.8 nM | 160 nM | > 10 µM | 
18 | O=C(c1ccc(F)cc1)C1CCN(c2ccc(S(=O)(=O)C3(C(=O)NO)CCOCC3)cc2)CC1 [Example 654] | 3.2 nM | 35 nM | > 10 µM | 
19 | COc1ccccc1C(=O)C1CCN(c2ccc(S(=O)(=O)C3(C(=O)NO)CCOCC3)cc2)CC1 [Example 655] | 37.3 nM | 1400 nM | > 10 µM | 
20 | O=C(c1ccccc1)C1CCN(c2ccc(S(=O)(=O)C3(C(=O)NO)CCOCC3)cc2)CC1 [Example 656] | 3.1 nM | 120 nM | > 10 µM | 
21 | O=C(NCc1ccccc1)N1CC(Oc2ccc(S(=O)(=O)C3(C(=O)NO)CCOCC3)cc2)C1 [Example 658] | 12.2 nM | 1000 nM | > 10 µM | 
22 | O=C(NO)C1(S(=O)(=O)c2ccc(N3CCN(c4ccc(Cl)cc4)CC3)cc2)CCOCC1 [Example 659] | 1 nM | 3.7 nM | > 10 µM | 
23 | O=C(NO)C1(S(=O)(=O)c2ccc(OC3CCC(OCc4ccccc4Cl)C3)cc2)CCOCC1 (stereo not drawn) [Example 665] | 2.3 nM | 29.2 nM | > 10 µM | 
24 | O=C(NO)C1(S(=O)(=O)c2ccc(OC3CCC(OCc4cccc(Cl)c4)C3)cc2)CCOCC1 (stereo not drawn) [Example 669] | 4.3 nM | 22.7 nM | > 10 µM | 
25 | Cc1ccc(S(=O)(=O)N2CCN(c3ccc(S(=O)(=O)C4(C(=O)NO)CCOCC4)cc3)CC2)cc1 [Example 674] | 8 nM | 110 nM | > 10 µM | 
26 | O=C(NO)C1(S(=O)(=O)c2ccc(N3CCN(S(=O)(=O)c4ccccc4C(F)(F)F)CC3)cc2)CCOCC1 [Example 675] | 13 nM | 88 nM | 6 µM | 
27 | O=C(NO)C1(S(=O)(=O)c2ccc(N3CCN(S(=O)(=O)c4cccc(C(F)(F)F)c4)CC3)cc2)CCOCC1 [Example 676] | 7.7 nM | 90 nM | > 10 µM | 
28 | COc1ccc(S(=O)(=O)N2CCN(c3ccc(S(=O)(=O)C4(C(=O)NO)CCOCC4)cc3)CC2)cc1 [Example 678] | 5 nM | 50 nM | > 10 µM | 

More lines, main results first:

Row | IC50 (MMP-13) | IC50 (MMP-2) | IC50 (MMP-1; [1]) | SMILES | IC50 (MMP-1)
29 | 22 nM | 25.4 nM | > 10 µM | O=C(NO)C1(S(=O)(=O)c2ccc(N3CCC(Oc4cccc5ccccc45)CC3)cc2)CCOCC1 [Example 614] | 
30 | 4 nM | 3.7 nM | > 10 µM | COc1ccc(OC2CCN(c3ccc(S(=O)(=O)C4(C(=O)NO)CCOCC4)cc3)CC2)cc1OC [Example 616] | 
31 | 27.8 nM | 225 nM | > 10 µM | O=C(NO)C1(S(=O)(=O)c2ccc(N3CCC(Oc4cccc(C(F)(F)F)c4)CC3)cc2)CCOCC1 [Example 620] | 
32 | 13.9 nM | 260 nM | > 10 µM | C=CCOC1CCN(c2ccc(S(=O)(=O)C3(C(=O)NO)CCOCC3)cc2)CC1 [Example 635] | 
33 | 1.5 nM | 1.5 nM | 9.4 µM | COc1cc(OC)cc(OC2CCN(c3ccc(S(=O)(=O)C4(C(=O)NO)CCOCC4)cc3)CC2)c1 [Example 639] | 
34 | 4.2 nM | 15.8 nM | > 10 µM | CCOc1cccc(OC2CCN(c3ccc(S(=O)(=O)C4(C(=O)NO)CCOCC4)cc3)CC2)c1 [Example 640] | 
35 | 4 nM | 13.7 nM | > 10 µM | O=C(NO)C1(S(=O)(=O)c2ccc(N3CCC(Oc4ccc(Cl)cc4F)CC3)cc2)CCOCC1 [Example 641] | 
36 | 370 nM | 1200 nM | > 10 µM | COCCN1CCN(c2ccc(S(=O)(=O)C3(C(=O)NO)CCOCC3)cc2)CC1 [Example 645] | 
37 | 13.7 nM | 60 nM | > 10 µM | Cc1cccc(COC2CCC(Oc3ccc(S(=O)(=O)C4(C(=O)NO)CCOCC4)cc3)C2)c1 (stereo not drawn) [Example 651] | 
38 | 48.4 nM | 330 nM | > 10 µM | O=C(NO)C1(S(=O)(=O)c2ccc(OC3CCCC(OCc4ccccc4Cl)C3)cc2)CCOCC1 (stereo not drawn) [Example 666] | 
39 | 2 nM | 25.8 nM | > 10 µM | O=C(NO)C1(S(=O)(=O)c2ccc(OC3CCC(OCc4cccc(Cl)c4)C3)cc2)CCOCC1 (stereo not drawn) [Example 668] | 
40 | 6 nM | 130 nM | > 10 µM | Cc1cccc(S(=O)(=O)N2CCN(c3ccc(S(=O)(=O)C4(C(=O)NO)CCOCC4)cc3)CC2)c1 [Example 671] | 
41 | 14.8 nM | 455 nM | > 10 µM | O=C(NO)C1(S(=O)(=O)c2ccc(N3CCN(S(=O)(=O)c4ccccc4OC(F)(F)F)CC3)cc2)CCOCC1 [Example 673] | 
42 | 7 nM | 34.7 nM | > 10 µM | O=C(NO)C1(S(=O)(=O)c2ccc(N3CCN(S(=O)(=O)c4ccc(C(F)(F)F)cc4)CC3)cc2)CCOCC1 [Example 677] | 
